Experimental data as given in PMC8445441, “Elucidating the mechanism by which synthetic helper peptides sensitize Pseudomonas aeruginosa to multiple antibiotics” (PLoS Pathogens, 2021).
Read-outs that look alike come from different tables or passages of the source.

Key:
P. aeruginosa ATCC27853 = assay: microbe, parasite or virus in culture; parameters: MICa: MIC of the antibiotic / MICac: MIC of the antibiotic in the combination: unit not given beside the values; conditions: strain ATCC27853; for FICI: antibiotic + D-11 (MICb/MICbc 32/4); for MICa: MIC of the antibiotic: antibiotic alone; for MICa: MIC of the antibiotic / MICac: MIC of the antibiotic in the combination: unit not given; for MICac: MIC of the antibiotic in the combination: with D-11 at MICbc 4
Method in brief: (§1)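 After 18 h at 37 °C, the lowest concentration showing no visible growth was read as the MIC. Drugs were serially diluted two-fold in MHB and combined with an equal volume of inoculum (~1 × 10^6 CFU/mL), following CLSI broth microdilution; run in triplicate.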

P. aeruginosa PA14 = assay: microbe, parasite or virus in culture; parameters: MICa: MIC of the antibiotic / MICac: MIC of the antibiotic in the combination: unit not given beside the values; conditions: strain PA14; for FICI: antibiotic + D-11 (MICb/MICbc 128/4); for MICa: MIC of the antibiotic: antibiotic alone; for MICa: MIC of the antibiotic / MICac: MIC of the antibiotic in the combination: unit not given; for MICac: MIC of the antibiotic in the combination: with D-11 at MICbc 4
Method in brief: as §1

P. aeruginosa PAK = assay: microbe, parasite or virus in culture; parameters: MICa: MIC of the antibiotic / MICac: MIC of the antibiotic in the combination: unit not given beside the values; conditions: strain PAK; for FICI: antibiotic + D-11 (MICb/MICbc 64/4); for MICa: MIC of the antibiotic: antibiotic alone; for MICa: MIC of the antibiotic / MICac: MIC of the antibiotic in the combination: unit not given; for MICac: MIC of the antibiotic in the combination: with D-11 at MICbc 4
Method in brief: as §1

P. aeruginosa NR-31040 = assay: microbe, parasite or virus in culture; parameters: MICa: MIC of the antibiotic / MICac: MIC of the antibiotic in the combination: unit not given beside the values; conditions: for FICI: antibiotic + D-11 (MICb/MICbc 128/4); for MICac: MIC of the antibiotic in the combination: with D-11 at MICbc 4
Method in brief: as §1

P. aeruginosa NR-31041 = assay: microbe, parasite or virus in culture; parameters: MICa: MIC of the antibiotic / MICac: MIC of the antibiotic in the combination: unit not given beside the values; conditions: strain NR-31041; for FICI: antibiotic + D-11 (MICb/MICbc 64/4); for MICa: MIC of the antibiotic: antibiotic alone; for MICa: MIC of the antibiotic / MICac: MIC of the antibiotic in the combination: unit not given; for MICac: MIC of the antibiotic in the combination: with D-11 at MICbc 4
Method in brief: as §1

P. aeruginosa PAO1 = assay: microbe, parasite or virus in culture; conditions: PAO1; for MIC: Pseudomonas aeruginosa, PAO1, 18 h; for FICI / MICac: the MIC for the antibiotic in the combination: S3 Table
Method in brief: as §1

P. aeruginosa AUMC-Pa-6 = assay: microbe, parasite or virus in culture; conditions: strain AUMC-Pa-6; for FICI: antibiotic + D-11 (MICb/MICbc 64/4); for MICa: MIC of the antibiotic: antibiotic alone; for MICa: MIC of the antibiotic / MICac: MIC of the antibiotic in the combination: unit not given; for MICac: MIC of the antibiotic in the combination: with D-11 at MICbc 4
Method in brief: as §1

P. aeruginosa AUMC-Pa-4 = assay: microbe, parasite or virus in culture; conditions: strain AUMC-Pa-4; for FICI: antibiotic + D-11 (MICb/MICbc 128/4); for MICa: MIC of the antibiotic: antibiotic alone; for MICa: MIC of the antibiotic / MICac: MIC of the antibiotic in the combination: unit not given; for MICac: MIC of the antibiotic in the combination: with D-11 at MICbc 4
Method in brief: as §1

P. aeruginosa AUMC-Pa-5 = assay: microbe, parasite or virus in culture; conditions: strain AUMC-Pa-5; for FICI: antibiotic + D-11 (MICb/MICbc 64/4); for MICa: MIC of the antibiotic: antibiotic alone; for MICa: MIC of the antibiotic / MICac: MIC of the antibiotic in the combination: unit not given; for MICac: MIC of the antibiotic in the combination: with D-11 at MICbc 4
Method in brief: as §1

P. aeruginosa AUMC-Pa-3 = assay: microbe, parasite or virus in culture; conditions: strain AUMC-Pa-3; for FICI: antibiotic + D-11 (MICb/MICbc 128/4); for MICa: MIC of the antibiotic: antibiotic alone; for MICa: MIC of the antibiotic / MICac: MIC of the antibiotic in the combination: unit not given; for MICac: MIC of the antibiotic in the combination: with D-11 at MICbc 4
Method in brief: as §1

P. aeruginosa HM-214 = conditions: strain HM-214; antibiotic + D-11 (MICb/MICbc 128/4)
Method in brief: as §1

P. aeruginosa AUMC-Pa-2 = conditions: strain AUMC-Pa-2; antibiotic + D-11 (MICb/MICbc 64/4)
Method in brief: as §1

P. aeruginosa AUMC-Pa-1 = conditions: strain AUMC-Pa-1; antibiotic + D-11 (MICb/MICbc 128/4)
Method in brief: as §1

[1] = test system: clinical P. aeruginosa isolates; assay: microbe, parasite or virus in culture; conditions: Pseudomonas aeruginosa, 18 h, antibiotic alone
Method in brief: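 MIC is the lowest drug concentration showing no visible growth after 18 h at 37 °C. Two-fold dilutions in MHB were combined with an equal volume of bacterial suspension (about 1 × 10^6 CFU/mL), following CLSI broth microdilution, in triplicate.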

[2] = strain NR-31040, unit not given
[3] = read-out: Antibiotic sensibility (MIC) of clinical P. aeruginosa isolate AUMC-Pa-1, strain AUMC-Pa-1
[4] = read-out: Antibiotic sensibility (MIC) of clinical P. aeruginosa isolate AUMC-Pa-2, strain AUMC-Pa-2
[5] = read-out: Antibiotic sensibility (MIC) of clinical P. aeruginosa isolate AUMC-Pa-3, strain AUMC-Pa-3
[6] = read-out: Antibiotic sensibility (MIC) of clinical P. aeruginosa isolate AUMC-Pa-4, strain AUMC-Pa-4
[7] = read-out: Antibiotic sensibility (MIC) of clinical P. aeruginosa isolate AUMC-Pa-5, strain AUMC-Pa-5
[8] = read-out: Antibiotic sensibility (MIC) of clinical P. aeruginosa isolate AUMC-Pa-6, strain AUMC-Pa-6
[9] = read-out: Antibiotic sensibility (MIC) of clinical P. aeruginosa isolate HM-214, strain HM-214
[10] = read-out: Antibiotic sensibility (MIC) of clinical P. aeruginosa isolate NR-31040, strain NR-31040
[11] = read-out: Antibiotic sensibility (MIC) of clinical P. aeruginosa isolate NR-31041, strain NR-31041

## CN(C)c1ccc(O)c2c1C[C@H]1C[C@H]3[C@H](N(C)C)C(O)=C(C(N)=O)C(=O)[C@@]3(O)C(O)=C1C2=O [Minocycline]
P. aeruginosa ATCC27853
  FICI: 0.188
  MICa: MIC of the antibiotic: 16
  MICac: MIC of the antibiotic in the combination: 1
P. aeruginosa PA14
  FICI: 0.156
  MICa: MIC of the antibiotic: 16
  MICac: MIC of the antibiotic in the combination: 2
P. aeruginosa PAK
  FICI: 0.125
  MICa: MIC of the antibiotic: 16
  MICac: MIC of the antibiotic in the combination: 1
P. aeruginosa NR-31040; Pseudomonas aeruginosa, NR31040, 18 h, read-out: MICa: MIC of the antibiotic
  MIC: 16 µM
P. aeruginosa NR-31040; strain NR-31040
  FICI: 0.063
P. aeruginosa NR-31040; [2]
  MICac: MIC of the antibiotic in the combination: 0.5
P. aeruginosa NR-31041
  FICI: 0.188
  MICa: MIC of the antibiotic: 16
  MICac: MIC of the antibiotic in the combination: 2
P. aeruginosa PAO1; read-out: MICa: the MIC of antibiotics, S3 Table, antibiotic alone
  MIC: 16 µM
P. aeruginosa PAO1; antibiotic + 2 μM D-11
  FICI: 0.094
P. aeruginosa PAO1; antibiotic + 4 μM D-11
  FICI: 0.141
P. aeruginosa PAO1; with 2 μM D-11
  MICac: the MIC for the antibiotic in the combination: 0.5 µM
P. aeruginosa PAO1; with 4 μM D-11
  MICac: the MIC for the antibiotic in the combination: 0.25 µM
P. aeruginosa AUMC-Pa-6
  FICI: 0.313
  MICa: MIC of the antibiotic: 16
  MICac: MIC of the antibiotic in the combination: 4
P. aeruginosa AUMC-Pa-4
  FICI: 0.156
  MICa: MIC of the antibiotic: 16
  MICac: MIC of the antibiotic in the combination: 2
P. aeruginosa AUMC-Pa-5
  FICI: 1.063
  MICa: MIC of the antibiotic: 16/16
  MICac: MIC of the antibiotic in the combination: 16/16
P. aeruginosa AUMC-Pa-3
  FICI: 0.156
  MICa: MIC of the antibiotic: 16
  MICac: MIC of the antibiotic in the combination: 2
P. aeruginosa HM-214
  FICI: 0.094
P. aeruginosa AUMC-Pa-2
  FICI: 0.313
P. aeruginosa AUMC-Pa-1
  FICI: 0.094
[1]; [3]
  MIC: 32 µM
[1]; [4]
  MIC: 8 µM
[1]; [5]
  MIC: 16 µM
[1]; [6]
  MIC: 16 µM
[1]; [7]
  MIC: 16 µM
[1]; [8]
  MIC: 16 µM
[1]; [9]
  MIC: 16 µM
[1]; [10]
  MIC: 16 µM
[1]; [11]
  MIC: 16 µM

## CC[C@H]1OC(=O)[C@H](C)C(=O)[C@H](C)[C@@H](O[C@@H]2O[C@H](C)C[C@H](N(C)C)[C@H]2O)[C@](C)(OC)C[C@@H](C)C(=O)[C@H](C)[C@H]2N(CCCCn3cnc(-c4cccnc4)c3)C(=O)O[C@]12C [Telithromycin]
P. aeruginosa ATCC27853
  FICI: 0.250
  MICa: MIC of the antibiotic: 64
  MICac: MIC of the antibiotic in the combination: 8
P. aeruginosa PA14
  FICI: 0.281
  MICa: MIC of the antibiotic: 64
  MICac: MIC of the antibiotic in the combination: 16
P. aeruginosa PAK
  FICI: 0.313
  MICa: MIC of the antibiotic: 64
  MICac: MIC of the antibiotic in the combination: 16
P. aeruginosa NR-31040; strain NR-31040
  FICI: 0.531
P. aeruginosa NR-31040; strain NR-31040, antibiotic alone, unit not given
  MICa: MIC of the antibiotic: 128
P. aeruginosa NR-31040; [2]
  MICac: MIC of the antibiotic in the combination: 64
P. aeruginosa NR-31041
  FICI: 0.188
  MICa: MIC of the antibiotic: 128
  MICac: MIC of the antibiotic in the combination: 16
P. aeruginosa PAO1; read-out: MICa: the MIC of antibiotics, S1 Table, macrolide alone
  MIC: 64 µM
P. aeruginosa AUMC-Pa-6
  FICI: 0.563
  MICa: MIC of the antibiotic: 64
  MICac: MIC of the antibiotic in the combination: 32
P. aeruginosa AUMC-Pa-4
  FICI: 0.531
  MICa: MIC of the antibiotic: 64
  MICac: MIC of the antibiotic in the combination: 32
P. aeruginosa AUMC-Pa-5
  FICI: 0.563
  MICa: MIC of the antibiotic: 64
  MICac: MIC of the antibiotic in the combination: 32
P. aeruginosa AUMC-Pa-3
  FICI: 0.063
  MICa: MIC of the antibiotic: 64
  MICac: MIC of the antibiotic in the combination: 2
P. aeruginosa HM-214
  FICI: 0.156
P. aeruginosa AUMC-Pa-2
  FICI: 0.313
P. aeruginosa AUMC-Pa-1
  FICI: 0.156
[1]; [3]
  MIC: 128 µM
[1]; [4]
  MIC: 64 µM
[1]; [5]
  MIC: 64 µM
[1]; [6]
  MIC: 64 µM
[1]; [7]
  MIC: 64 µM
[1]; [8]
  MIC: 64 µM
[1]; [9]
  MIC: 128 µM
[1]; [10]
  MIC: 128 µM
[1]; [11]
  MIC: 128 µM
